# pIC50: −log10 of the molar value. Structures can show the parent of a compound that is named as a salt. Where two headings read alike, the source gives them in different places.
# How the values were obtained:
# [1] = biological target: muscarinic receptors; experiment: Radioligand binding: displacement of the muscarinic agonist 3H-Oxotremorine-M (3H-OXO-M) from rat cerebral cortex; set-up: species or system Hooded Lister rats; conditions: 2 nM 3H-OXO-M, rat cerebral cortex homogenate, 2 mM magnesium chloride, 37° C., 30 min, tested as the oxalate salt
# [2] = biological target: muscarinic receptors; type: binding, Hooded Lister rats; conditions: 0.27 nM 3H-QNB, rat cerebral cortex homogenate, 37° C., 30 min, tested as the oxalate salt
smiles,measurement,setting,value
"CCc1noc(C2CN3CCC2C3)n1 (single isomer, unassigned; (+)) [Example E2, (+) exo-3-(3-Ethyl-1,2,4-oxadiazol-5-yl)-1-azabicyclo-[2.2.1]heptane oxylate salt]",pIC50,[1],7.59
same,pIC50,[2],5.80
"CCc1noc([C@@H]2CN3CC[C@@H]2C3)n1 (relative stereo) [Example E1, (±) exo-3-(3-Ethyl-1,2,4-oxadiazol-5-yl)-1-azabicyclo-[2.2.1]heptane oxalate salt]",pIC50,[1],7.51
same,pIC50,[2],6.03
"CCc1noc(C2CN3CCC2C3)n1 (single isomer, unassigned; (-)) [Example E3, (-) exo-(3-Ethyl-1-1,2,4-oxadiazol-5-y1)-1-azabicyclo-[2.2.1]heptane oxalate salt]",pIC50,[1]; oxalate salt,7.44
same,pIC50,[2]; oxalate salt,6.14

# — patent publication US5043342A (priority 1988, dated 1991)
